Where a name gives a salt, the structure may show the parent alone. Bounds are passed on as bounds.

The first test deals with hBTK (full-length BTK, 6HIS-tag cleaved) (Homo sapiens (Human), UniProt Q06187). The experiment in a line: BTK enzymatic activity, LANCE TR-FRET assay (Assay Method C). The format is biochemical. To be noted: LANCE TR-FRET, 50 pM hBTK, 25 μM ATP; class 100-1000 is given as ≧100 nM-<1 μM; read-out: IC50 Btk activity values - Assay Method C.
Sequence of hBTK (full-length BTK, 6HIS-tag cleaved) (Q06187 whole entry): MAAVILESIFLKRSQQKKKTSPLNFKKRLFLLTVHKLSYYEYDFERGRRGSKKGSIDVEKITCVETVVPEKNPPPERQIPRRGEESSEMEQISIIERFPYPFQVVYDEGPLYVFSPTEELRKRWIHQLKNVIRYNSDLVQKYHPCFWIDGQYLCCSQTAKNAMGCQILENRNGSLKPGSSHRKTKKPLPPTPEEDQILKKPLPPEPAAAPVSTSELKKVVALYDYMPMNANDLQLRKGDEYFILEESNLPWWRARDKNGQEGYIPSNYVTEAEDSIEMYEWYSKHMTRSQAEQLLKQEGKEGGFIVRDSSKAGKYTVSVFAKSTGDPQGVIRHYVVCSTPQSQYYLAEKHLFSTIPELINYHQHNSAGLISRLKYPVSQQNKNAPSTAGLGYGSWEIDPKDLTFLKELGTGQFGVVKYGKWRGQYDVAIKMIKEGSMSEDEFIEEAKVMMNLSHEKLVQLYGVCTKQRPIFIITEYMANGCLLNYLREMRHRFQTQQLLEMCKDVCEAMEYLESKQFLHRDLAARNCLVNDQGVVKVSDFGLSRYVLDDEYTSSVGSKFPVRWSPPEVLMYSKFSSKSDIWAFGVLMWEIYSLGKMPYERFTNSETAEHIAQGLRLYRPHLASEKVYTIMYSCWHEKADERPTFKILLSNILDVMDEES
By IC50 is commonly meant the midpoint of a concentration-inhibition curve. For `Cc1cnc(N)c2c(-c3ccc(C(=O)Nc4cc(C(F)F)ccn4)cc3)nc([C@@H]3CCCN(C(=O)C4(C)COC4)C3)n12` [Example 458, 4-(8-amino-5-methyl-3-{(3R)-1-[(3-methyloxetan-3-yl)carbonyl]piperidin-3-yl}imidazo[1,5-a]pyrazin-1-yl)-N-[4-(difluoromethyl)pyridin-2-yl]benzamide], the IC50 was below 10 nM.
For `CC1(C(=O)N2CCC[C@@H](n3nc(-c4ccc(C(=O)Nc5cc(C(F)(F)F)ccn5)cc4)c4c(N)ncc(Cl)c43)C2)COC1` [Example 382, 4-(4-amino-7-chloro-1-{(3R)-1-[(3-methyloxetan-3-yl)carbonyl]piperidin-3-yl}-1H-pyrazolo[4,3-c]pyridin-3-yl)-N-[4-(trifluoromethyl)pyridin-2-yl]benzamide], the IC50 was below 10 nM.
With `Nc1ncnc2c1c(-c1ccc(C(=O)Nc3cc(C(F)(F)F)ccn3)cc1)nn2[C@H]1CCCc2nn(CCO)cc21` [Example 564, 4-{4-amino-1-[(4S)-2-(2-hydroxyethyl)-4,5,6,7-tetrahydro-2H-indazol-4-yl]-1H-pyrazolo[3,4-d]pyrimidin-3-yl}-N-[4-(trifluoromethyl)pyridin-2-yl]benzamide, TFA salt], the IC50 is below 10 nM.
As for `Cn1ncc2c1CCC[C@@H]2n1nc(-c2ccc(C(=O)Nc3cc(C(F)(F)F)ccn3)cc2)c2c(N)ncnc21` [Example 553, 4-{4-amino-1-[(4S)-1-methyl-4,5,6,7-tetrahydro-1H-indazol-4-yl]-1H-pyrazolo[3,4-d]pyrimidin-3-yl}-N-[4-(trifluoromethyl)pyridin-2-yl]benzamide, TFA salt], the IC50 is below 10 nM.
The same measure, in the same setting: then `Nc1nccn2c([C@H]3CN(CC4CC4)CCO3)nc(-c3ccc(C(=O)Nc4cc(C(F)(F)F)ccn4)cc3)c12` [Example 508, 4-{8-amino-3-[(2R)-4-(cyclopropylmethyl)morpholin-2-yl]imidazo[1,5-a]pyrazin-1-yl}-N-[4-(trifluoromethyl)pyridin-2-yl]benzamide], with below 10 nM; and `Cc1cnc(N)c2c(-c3ccc(C(=O)Nc4cc(C(F)(F)F)ccn4)cc3F)nc([C@H]3CN(C(=O)C4(C)COC4)CCO3)n12` [Example 514, 4-(8-amino-5-methyl-3-{(2R)-4-[(3-methyloxetan-3-yl)carbonyl]morpholin-2-yl}imidazo[1,5-a]pyrazin-1-yl)-3-fluoro-N-[4-(trifluoromethyl)pyridin-2-yl]benzamide], with below 10 nM; and `Cc1cnc(NC(=O)c2ccc(-c3nc([C@@H]4CCCN(C(=O)C5(C)COC5)C4)n4ccnc(N)c34)cc2)s1` [Example 366, 4-(8-amino-3-{(3R)-1-[(3-methyloxetan-3-yl)carbonyl]piperidin-3-yl}imidazo[1,5-a]pyrazin-1-yl)-N-(5-methyl-1,3-thiazol-2-yl)benzamide], with below 10 nM.
In the case of `Cc1cnc(N)c2c(-c3ccc(C(=O)Nc4cc(C(F)(F)F)ccn4)cc3)nc([C@H]3CN(C(=O)C4(C)COC4)CCO3)n12` [Example 506, 4-(8-amino-5-methyl-3-{(2R)-4-[(3-methyloxetan-3-yl)carbonyl]morpholin-2-yl}imidazo[1,5-a]pyrazin-1-yl)-N-[4-(trifluoromethyl)pyridin-2-yl]benzamide], the IC50 fell in the range of 10 to 100 nM.
Still for that read-out and setting: then `Cc1cnc(N)c2c(-c3ccc(C(=O)Nc4cc(OC5CC5)ccn4)cc3)nc([C@@H]3CCCN(C(=O)C4(C)COC4)C3)n12` [Example 456, 4-(8-amino-5-methyl-3-{(3R)-1-[(3-methyloxetan-3-yl)carbonyl]piperidin-3-yl}imidazo[1,5-a]pyrazin-1-yl)-N-[4-(cyclopropyloxy)pyridin-2-yl]benzamide], with below 10 nM; and `CCC(=O)N1CCC[C@@H](c2nc(-c3ccc(C(=O)Nc4cc(C(F)F)ccn4)cc3F)c3c(N)nccn23)C1` [Example 488, 4-{8-amino-3-[(3R)-1-propanoylpiperidin-3-yl]imidazo[1,5-a]pyrazin-1-yl}-N-[4-(difluoromethyl)pyridin-2-yl]-3-fluorobenzamide], with below 10 nM; and `CC1(C(=O)N2CCC[C@@H](c3nc(-c4ccc(C(=O)Nc5ncc6c(n5)CCC6)cc4)c4c(N)nccn34)C2)COC1` [Example 364, 4-(8-amino-3-{(3R)-1-[(3-methyloxetan-3-yl)carbonyl]piperidin-3-yl}imidazo[1,5-a]pyrazin-1-yl)-N-(6,7-dihydro-5H-cyclopenta[d]pyrimidin-2-yl)benzamide], with 10 to 100 nM.
The same measure, in the same setting: the figure for `Nc1ncnc2c1c(-c1ccc(C(=O)Nc3cc(C(F)(F)F)ccn3)cc1)nn2[C@H]1CCCc2c1cnn2CCO` [Example 563, 4-{4-amino-1-[(4S)-1-(2-hydroxyethyl)-4,5,6,7-tetrahydro-1H-indazol-4-yl]-1H-pyrazolo[3,4-d]pyrimidin-3-yl}-N-[4-(trifluoromethyl)pyridin-2-yl]benzamide, TFA salt] is below 10 nM.
Turning to `CCc1ccnc(NC(=O)c2ccc(-c3nc([C@@H]4CCCN(C(=O)C5(C)COC5)C4)n4ccnc(N)c34)cc2)c1` [Example 362, 4-(8-amino-3-{(3R)-1-[(3-methyloxetan-3-yl)carbonyl]piperidin-3-yl}imidazo[1,5-a]pyrazin-1-yl)-N-(4-ethylpyridin-2-yl)benzamide], the IC50 was below 10 nM.
Same read-out and setting: the figure for `CC1(C(=O)N2CCO[C@@H](c3nc(-c4ccc(C(=O)Nc5cc(C(F)(F)F)ccn5)cc4)c4c(N)ncc(C#N)n34)C2)COC1` [Example 527, 4-(8-amino-5-cyano-3-{(2R)-4-[(3-methyloxetan-3-yl)carbonyl]morpholin-2-yl}imidazo[1,5-a]pyrazin-1-yl)-N-[4-(trifluoromethyl)pyridin-2-yl]benzamide] is below 10 nM; for `CC1(C(=O)N2CCC[C@@](O)(c3nc(-c4ccc(C(=O)Nc5cc(C(F)(F)F)ccn5)cc4)c4c(N)nccn34)C2)COC1` [Example 439, 4-(8-amino-3-{(3S)-3-hydroxy-1-[(3-methyloxetan-3-yl)carbonyl]piperidin-3-yl}imidazo[1,5-a]pyrazin-1-yl)-N-[4-(trifluoromethyl)pyridin-2-yl]benzamide] it is below 10 nM; for `CCn1cc2c(n1)CCC[C@@H]2n1nc(-c2ccc(C(=O)Nc3cc(C(F)(F)F)ccn3)cc2)c2c(N)ncnc21` [Example 560, 4-{4-amino-1-[(4S)-2-ethyl-4,5,6,7-tetrahydro-2H-indazol-4-yl]-1H-pyrazolo[3,4-d]pyrimidin-3-yl}-N-[4-(trifluoromethyl)pyridin-2-yl]benzamide, TFA salt] it is 10 to 100 nM.
Still for that read-out and setting: then `C[C@H]1CC[C@@H](c2nc(-c3ccc(C(=O)Nc4cc(C(C)(F)F)ccn4)cc3)c3c(N)nccn23)CN1C(=O)C1(C)COC1` [Example 413, 4-(8-amino-3-{(3R,6S)-6-methyl-1-[(3-methyloxetan-3-yl)carbonyl]piperidin-3-yl}imidazo[1,5-a]pyrazin-1-yl)-N-[4-(1,1-difluoroethyl)pyridin-2-yl]benzamide], with below 10 nM; and `COCc1cnc(N)c2c(-c3ccc(C(=O)Nc4cc(C(F)(F)F)ccn4)cc3)nc([C@@H]3CC[C@H](C)N(C(=O)C4(C)COC4)C3)n12` [Example 450, 4-[8-amino-5-(methoxymethyl)-3-{(3R,6S)-6-methyl-1-[(3-methyloxetan-3-yl)carbonyl]piperidin-3-yl}imidazo[1,5-a]pyrazin-1-yl]-N-[4-(trifluoromethyl)pyridin-2-yl]benzamide], with below 10 nM.
Regarding `CC1(C(=O)N2CCC[C@@H](c3nc(-c4ccc(C(=O)Nc5cc(C(F)(F)F)ccn5)cc4)c4c(N)ncc(C#N)n34)C2)COC1` [Example 373, (R)-4-(8-amino-5-cyano-3-(1-(3-methyloxetane-3-carbonyl)piperidin-3-yl)imidazo[1,5-a]pyrazin-1-yl)-N-(4-(trifluoromethyl)pyridin-2-yl)benzamide], the IC50 was below 10 nM.
Same read-out and setting: the figure for `Nc1nccn2c([C@@H]3CCCN(C(=O)c4cnccn4)C3)nc(-c3ccc(C(=O)Nc4cc(C(F)(F)F)ccn4)cc3)c12` [Example 336, 4-{8-amino-3-[(3R)-1-(pyrazin-2-ylcarbonyl)piperidin-3-yl]imidazo[1,5-a]pyrazin-1-yl}-N-[4-(trifluoromethyl)pyridin-2-yl]benzamide] is below 10 nM; for `Cc1ccnc(NC(=O)c2ccc(-c3nc([C@@H]4CCCN(C(=O)C5(C)COC5)C4)n4ccnc(N)c34)cc2)c1` [Example 352, 4-(8-amino-3-{(3R)-1-[(3-methyloxetan-3-yl)carbonyl]piperidin-3-yl}imidazo[1,5-a]pyrazin-1-yl)-N-(4-methylpyridin-2-yl)benzamide] it is below 10 nM; for `CCN1C[C@H](c2nc(-c3ccc(C(=O)Nc4cc(C(F)(F)F)ccn4)cc3)c3c(N)nccn23)OC[C@@H]1CO` [Example 549, 4-{8-amino-3-[(2R,5S)-4-ethyl-5-(hydroxymethyl)morpholin-2-yl]imidazo[1,5-a]pyrazin-1-yl}-N-[4-(trifluoromethyl)pyridin-2-yl]benzamide, TFA salt] it is below 10 nM.
Same read-out and setting: then `CC1(CN2CCC[C@@H](c3nc(-c4ccc(C(=O)Nc5cc(C(F)(F)F)ccn5)cc4)c4c(N)nccn34)C2)COC1` [Example 338, 4-(8-amino-3-{(3R)-[(3-methyloxetan-3-yl)methyl]piperidin-3-yl}imidazo[1,5-a]pyrazin-1-yl)-N-[4-(trifluoromethyl)pyridin-2-yl]benzamide], with below 10 nM; and `CN1C[C@@H](c2nc(-c3ccc(C(=O)Nc4cc(C(F)(F)F)ccn4)cc3)c3c(N)nccn23)CC[C@H]1C(F)(F)F` [Example 414, 4-{8-amino-3-[(3S,6S)-1-methyl-6-(trifluoromethyl)piperidin-3-yl]imidazo[1,5-a]pyrazin-1-yl}-N-[4-(trifluoromethyl)pyridin-2-yl]benzamide], with below 10 nM.

The test is the same for the next values; noted with them: Table D; Assay Method C (LANCE TR-FRET), 50 pM hBTK, 25 μM ATP; read-out: IC50 BTK activity value.
Turning to `Cc1cnc(N)c2c(-c3ccc(C(=O)Nc4cc(OC5CC5)ccn4)cc3)nc([C@@H]3CCCN(C(=O)C4(C)COC4)C3)n12` [Example 456, 4-(8-amino-5-methyl-3-{(3R)-1-[(3-methyloxetan-3-yl)carbonyl]piperidin-3-yl}imidazo[1,5-a]pyrazin-1-yl)-N-[4-(cyclopropyloxy)pyridin-2-yl]benzamide], the IC50 was determined as 0.403 nM.
Regarding `C[C@H]1CC[C@@H](c2nc(-c3ccc(C(=O)Nc4cc(C(C)(F)F)ccn4)cc3)c3c(N)nccn23)CN1C(=O)C1(C)COC1` [Example 413, 4-(8-amino-3-{(3R,6S)-6-methyl-1-[(3-methyloxetan-3-yl)carbonyl]piperidin-3-yl}imidazo[1,5-a]pyrazin-1-yl)-N-[4-(1,1-difluoroethyl)pyridin-2-yl]benzamide], the IC50 amounted to 0.2 nM.

The record behind these values is patent US9718828B2 (MERCK SHARP & DOHME CORP., priority 2011, dated 2017).
